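1) Cells in 96-well plates. 2) Compound, 48 h, 5 concentrations. 3) Linear interpolation between surrounding doses. 4) Unreached endpoint = highest concentration. GI50: concentration for 50% inhibition of growth.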 Calls of active or inactive are those of the source. Rule as the data show it: active = GI50 up to about 1.1 µM and inactive = higher.
What was measured:
Assay in all cases: NCI-60 cell line screen, 48 h
[1] = test system: HCT-116
[2] = test system: DLD-1
[3] = test system: HOP-62
[4] = test system: MDA-MB-231
[5] = test system: DMS-273
[6] = test system: A498
[7] = test system: NCI-H522
[8] = test system: SNB-75
[9] = test system: ACHN
[10] = test system: KM-20L2
[11] = test system: HCC 2998
[12] = test system: COLO 205
[13] = test system: SNB-19
[14] = test system: CCRF-CEM
[15] = test system: SK-MEL-5
[16] = test system: LXFL 529
[17] = test system: PC-3
[18] = test system: XF498
[19] = test system: Malme-3M
[20] = test system: SK-OV-3
[21] = test system: 786-0
[22] = test system: RXF 393
[23] = test system: MOLT-4
[24] = test system: EKVX
[25] = test system: OVCAR-4
[26] = test system: LOX IMVI
[27] = test system: UO-31
[28] = test system: OVCAR-3
[29] = test system: SNB-78
[30] = test system: SW-620
[31] = test system: MCF7
[32] = test system: KM12
[33] = test system: Hs-578T
[34] = test system: HT-29
[35] = test system: MDA-N
[36] = test system: HL-60
[37] = test system: RPMI-8226
[38] = test system: A549
[39] = test system: M19-MEL
[40] = test system: OVCAR-8
[41] = test system: NCI-H23
[42] = test system: SF-539
[43] = test system: T47D
[44] = test system: SF-268
[45] = test system: DMS-114
[46] = test system: SR
[47] = test system: MDA-MB-435
[48] = test system: BT-549
[49] = test system: SF-295
[50] = test system: HOP-92
[51] = test system: M14
[52] = test system: IGROV-1
[53] = test system: SK-MEL-28
[54] = test system: U-251
[55] = test system: CAKI-1
[56] = test system: TK-10
[57] = test system: NCI-H460
[58] = test system: UACC-257
[59] = test system: SN12C
[60] = test system: NCI/ADR-RES
[61] = test system: DU-145
[62] = test system: UACC-62
[63] = test system: HCT-15
[64] = test system: OVCAR-5
[65] = test system: SK-MEL-2
[66] = test system: NCI-H226
[67] = test system: K562

`O=C(CCl)Nc1ccc(C(=O)N/N=C/c2ccc(Cl)cc2)cc1` was tested, and the GI50 [1] was 1800 nM (inactive), the GI50 [2] was 2180 nM (inactive) and the GI50 [3] was 3520 nM (inactive). The GI50 [4] was 1940 nM (inactive), the GI50 [5] was 2000 nM (inactive) and the GI50 [6] was 2210 nM (inactive). For the same molecule, the GI50 [7] was 1750 nM (inactive), the GI50 [8] was 14900 nM (inactive) and the GI50 [9] was 2590 nM (inactive). For the same molecule, the GI50 [10] was 11900 nM (inactive), the GI50 [11] was 9330 nM (inactive) and the GI50 [12] was 731 nM (active). For the same molecule, the GI50 [13] was 7410 nM (inactive), the GI50 [14] was 1820 nM (inactive) and the GI50 [15] was 5770 nM (inactive). The GI50 [16] was 1710 nM (inactive), the GI50 [17] was 2020 nM (inactive) and the GI50 [18] was 1190 nM (inactive). For the same molecule, the GI50 [19] was 2010 nM (inactive), the GI50 [20] was 3030 nM (inactive) and the GI50 [21] was 1580 nM (inactive). For the same molecule, the GI50 [22] was 946 nM (active), the GI50 [23] was 1900 nM (inactive) and the GI50 [24] was 2190 nM (inactive). For the same molecule, the GI50 [25] was 2090 nM (inactive), the GI50 [26] was 1480 nM (inactive) and the GI50 [27] was 4460 nM (inactive). The GI50 [28] was 1840 nM (inactive), the GI50 [29] was 3520 nM (inactive) and the GI50 [30] was 2740 nM (inactive). For the same molecule, the GI50 [31] was 5090 nM (inactive), the GI50 [32] was 889 nM (active) and the GI50 [33] was 2820 nM (inactive). For the same molecule, the GI50 [34] was 1670 nM (inactive), the GI50 [35] was 1830 nM (inactive) and the GI50 [36] was 1600 nM (inactive). The GI50 [37] was 2420 nM (inactive), the GI50 [38] was 6070 nM (inactive) and the GI50 [39] was 12800 nM (inactive). The GI50 [40] was 2290 nM (inactive), the GI50 [41] was 2440 nM (inactive) and the GI50 [42] was 2010 nM (inactive). For the same molecule, the GI50 [43] was 2510 nM (inactive), the GI50 [44] was 2070 nM (inactive) and the GI50 [45] was 1450 nM (inactive). The GI50 [46] was 1790 nM (inactive), the GI50 [47] was 1820 nM (inactive) and the GI50 [48] was 1880 nM (inactive). For the same molecule, the GI50 [49] was 4060 nM (inactive), the GI50 [50] was 2000 nM (inactive) and the GI50 [51] was 6410 nM (inactive). The GI50 [52] was 728 nM (active), the GI50 [53] was 5680 nM (inactive) and the GI50 [54] was 1780 nM (inactive). The GI50 [55] was 2820 nM (inactive), the GI50 [56] was 15900 nM (inactive) and the GI50 [57] was 2000 nM (inactive). The GI50 [58] was 1670 nM (inactive), the GI50 [59] was 2840 nM (inactive) and the GI50 [60] was 2370 nM (inactive). The GI50 [61] was 3020 nM (inactive), the GI50 [62] was 3560 nM (inactive) and the GI50 [63] was 4630 nM. The GI50 [64] was 18800 nM (inactive), the GI50 [65] was 5580 nM (inactive) and the GI50 [66] was 18600 nM (inactive). The GI50 [67] was 2890 nM (inactive).
